From US10759831B2, “Peptide compound, production method therefor, and use thereof” (iNtRON Biotechnology, Inc., priority 2014, dated 2020)
Where two headings read alike, the source gives them in different places.

Assays:
RKO cells = experiment: ROS production, DCFH-DA flow cytometry; format: cell-based, human; details: 24 hours
Experimental: In detail, as described in Example 2-3, Asperphenin B at the concentration of 2.5 μM, 5 μM, or 10 μM wad added to the RKO cells. Cells were collected after the RKO cells were cultured for 24 hours. In addition, a cell group in which 5 mM of N-acetylcysteine (NAC) (Sigma Aldrich), which is an antioxidant, was added to 5 μM and […] of Asperphenin B was prepared as a comparative group, whereas a cell group in which none of Asperphenin B and NAC was contained as a control.
Afterwards, 2′,7′-dichlorofluorescin diacetate (DCFH-DA) (Sigma Aldrich) having a final concentration of 20 μM was added to the cell culture medium, and then, cultured at a temperature of 37° C. for 30 minutes under the condition of 5% CO2. Cells attached to the cell medium and cells not attached to the cell medium were all collected, washed with cold PBS twice, and then, suspended again in 1 ml of PBS to measure intensity of 2′,7′-dichlorofluorescin (DCF) by using a BD FACSCalibur flow cytrometer (manufactured by BD Biosciences).

[1] = tested on: colon cancer cell line HCT116; experiment: SRB cell viability assay, colon cancer cell line HCT116; format: cell-based; details: Homo sapiens, HCT-116
Experimental: Regarding a lung cancer cell line A549 (Korean Cell line Bank), a colon cancer cell line HCT116 (ATCC), a stomach cancer cell line SNU638 (Korean Cell Line Bank), a liver cancer cell line SK-HEP-1 (Korean Cell line Bank), and a breast cancer cell line MDA-MB-231 (Korean Cell line Bank), a sulforhodamine B (SRB) assay which is a method of measuring cell viability was used for measuring apoptosis effects of Asperphenin.
In detail, 190 μl of a cell suspension at a concentration of 3.5×10^4 cells/ml was inoculated in each well of a 96-well microplate. 0.8 μM, 4 μM, 20 μM, or 100 μM of Asperphenin was added to the cell culture medium, and cultured at a temperature of 37° C. for 72 hours under the condition of 5% CO2. After incubation, 50 μl of 50% (v/v) trichloroacetic acid solution (Sigma Aldrich) was added to each well, and then, incubated at a temperature of 4° C. for 30 minutes, to thereby fix the cells thereto. The fixed cells were washed with water five times, and then, dried in the air.
Next, 80 μl of a 0.4% (w/v) SRB aqueous solution (Sigma Aldrich) containing 1% (v/v) acetic acid (DUKSAN) was added to each well, incubated at room temperature for 1 hour to stain cells therein, and the stained cells washed with water and dried. The cells were dissolved by adding 200 μl of 10 mM Tris (pH 10.0) (Sigma Aldrich) to each well, and then, the number of living cells was calculated by measuring the absorbance thereof at 515 nm. The concentration of the compound inhibiting cell growth to 50% based on the number of the living cells, i.e., 50% inhibition concentration (IC50) was calculated, and the results are shown in Table 3. Here, as a positive control, etoposide (Sigma Aldrich) was used.
From the colon cancer cell lines HCT116 (ATCC), HCT15 (Korean Cell Line Bank), LS174T (Korean Cell Line Bank), RKO(ATCC), and SW480(ATCC), cell growth inhibition concentrations (IC50, μM) were calculated as described in Example 2-1, and the results are shown in Table 4. Here, as a positive control, paclitaxel (Sigma Aldrich) was used.

IC50 ([1]; HCT116, 72 hours, Table 3, read-out: Cell growth inhibition concentration (IC50)): 2.6 µM
IC50 ([1]; HCT116, Table 4, read-out: Growth inhibition value of cancer cell (IC50)): 4.05 µM
Compound: CCCCCCCCC[C@@H](O)CC(=O)N[C@@H](CC(N)=O)C(=O)N[C@@H](CCC(N)=O)C(=O)N[C@H](CC(=O)c1cc(C)cc(O)c1C(=O)c1c(O)cccc1O)CC(C)C [Asperphenin B]
Production of ROS relative to the control (RKO cells): about 2.4 times
Ratio of cells producing ROS (RKO cells; 2.5 μM): 8.14%
Ratio of cells producing ROS (RKO cells; 5 μM): 13.86%
Ratio of cells producing ROS (RKO cells; 5 μM Asperphenin B + 5 mM NAC): 1.41%
Ratio of cells producing ROS (RKO cells; 10 μM): 14.26%
Ratio of cells producing ROS (RKO cells; 10 μM Asperphenin B + 5 mM NAC): 2.55%
